Data set [1] can be described thus: Moisture sorption isotherm (SPS-11 moisture sorption analyzer). In kind it is physicochemical. Here is the method: The moisture sorption isotherm was recorded with a SPS-11 moisture sorption analyzer (MD Mess-technik, Ulm, D). The measurement cycle was started at 0% relative humidity (RH), increased in 10% steps up to 90% RH and in a 5% step up to 95% RH. The equilibrium condition for each step was set to a constant mass±0.003% over 49 min. The temperature was 25±0.1° C.
At ambient conditions form II-S contains approximately 1 mol water (monohydrate). […] The maximum water content peaks at 5.2% at 90% relative humidity, which corresponds to a water mol ratio of 2.0 (FIG. 4).

The conditions of data set [2]: under the conditions investigated in WO 99/18097; cited from earlier work.

Consider `CC[C@@H]([C@H](C)O)n1ncn(-c2ccc(N3CCN(c4ccc(OC[C@@H]5CO[C@@](Cn6cncn6)(c6ccc(F)cc6F)C5)cc4)CC3)cc2)c1=O` [form II-S, 2,5-anhydro-1,3,4-trideoxy-2-C-(2,4-difluorophenyl)-4-[[4-[4-[4-[1-[(1S,2S)-1-ethyl-2-hydroxypropyl]-1,5-dihydro-5-oxo-4H-1,2,4-triazol-4-yl]phenyl]-1-piperazinyl]phenoxy]methyl]-1-(1H-1,2,4-triazol-1-yl)-D-threo-pentitol], for which the “water content at ambient conditions” value in data set [1] (ambient conditions, per mole posaconazole (monohydrate)) is “approximately 1 mol water”. In addition, in data set [1] (at 90% relative humidity, 25 °C, corresponds to the 5.2% water content), the “water mol ratio at maximum water content” value is on record as 2.0. Moreover, the “step of water uptake/loss” value in data set [1] (between 0 and 10% relative humidity) is “over 0.5 mol water”. The maximum water content in data set [1] (moisture sorption isotherm, at 90% relative humidity, 25 °C) stood at 5.2%.
As for `CC[C@@H]([C@H](C)O)n1ncn(-c2ccc(N3CCN(c4ccc(OC[C@@H]5CO[C@@](Cn6cncn6)(c6ccc(F)cc6F)C5)cc4)CC3)cc2)c1=O` [form II, posaconazole], the “stability of the crystalline form” value in data set [2] is “unstable”.
